Measurements from PubChem BioAssay AID651985 (The Scripps Research Institute Molecular Screening Center, 2013).
Activity calls are given as the source filed them. The rule behind the calls is not given here.

Columns and labels:
[1] = system: LYPLA2; experiment: PubChem AID 651985; conditions: C57 mice dosed, tissue gel ABPP with NHU5 probe, stronger effect = higher value
[2] = system: LYPLA1; experiment: PubChem AID 651985; conditions: C57 mice dosed, tissue gel ABPP with NHU5 probe, stronger effect = higher value

Row | SMILES | inhibition ([1]; heart) [%] | inhibition [1] | inhibition ([1]; kidney) [%] | inhibition ([1]; liver) [%] | inhibition ([1]; lung) [%] | inhibition ([2]; heart) [%] | inhibition [2] | inhibition ([2]; kidney) [%] | inhibition ([2]; liver) [%] | inhibition ([2]; lung) [%]
1 | COc1ccc(N2CCN(C(=O)c3cc4c(s3)-c3ccccc3S(=O)(=O)C4)CC2)cc1 | 100 | 50% | 75 | 0 | 100 | 0 | 0% (inactive) | 0 | 0 | 0
2 | O=C(CN1CCN(C(=O)c2ccco2)CC1)Nc1cc(C(F)(F)F)ccc1Cl | 0 | 0% (inactive) | 0 | 0 | 0 | 100 | 25% | 75 | 0 | 100
